Laboratory results: patent US6455472B1, “Phenyl-substituted cyclic enaminones” (Bayer Aktiengesellschaft, priority 1998, dated 2002)

Tests used:
weeds [1] = test: Post emergence test, weeds; assay type: in vivo; details: sprayed, assessed after 3 weeks, application rate not stated
Procedure: (§1) Solvent: 5 parts by weight of acetone
(§2) Emulsifier: 1 part by weight of alkylaryl polyglycol ether
(§3) To produce a suitable preparation of active compound, 1 part by weight of active compound is mixed with the stated amount of solvent, the stated amount of emulsifier is added and the concentrate is diluted with water to the desired concentration.
Test plants which have a height of 5 to 15 cm are sprayed with the preparation of active compound such that the particular desired amounts of active compound are applied per unit area. After 3 weeks, the degree of damage to the plants is assessed in % damage in comparison to the development of the untreated controls.

weeds [2] = test: Pre-emergence test, weeds; assay type: in vivo; details: soil watered 24 hours after sowing, assessed after three weeks, application rate not stated
Procedure: as §1, §2, §3
Seeds of the test plants are sown in normal soil and, after 24 hours, watered with the preparation of active compound. The amount of water per unit area is advantageously kept constant. The concentration of active compound in the preparation is immaterial, only the active compound application rate per unit area matters. After three weeks, the degree of damage to the plants is assessed in % damage in comparison with the development of the untreated control.

[3] = system: caterpillars of the army worm (Spodoptera frugiperda); test: Spodoptera frugiperda test; assay type: in vivo; details: cabbage leaves (Brassica oleracea) dipped into preparation of active compound; concentration and time not stated
Procedure: Solvent: 7 parts by weight of dimethylformamide
Emulsifier:: 1 part by weight of alkylaryl polyglycol ether
To produce a suitable preparation of active compound, 1 part by weight of active compound is mixed with the stated amounts of solvent and emulsifier, and the concentrate is diluted with water to the desired concentration.
Cabbage leaves (Brassica oleracea) are treated by being dipped into the preparation of active compound of the desired concentration and are populated with caterpillars of the army worm (Spodoptera frugiperda) while the leaves are still moist.
After the desired period of time, the kill in % is determined. 100% means that all caterpillars have been killed; 0% means that none of the caterpillars have been killed.

melting point [°C] | SMILES | other results
108 to 110 | CCOC(=O)C1CC/C(=C(\C#N)C(=O)c2ccc(Cl)cc2)N1 (centres unmarked) [Example 7, ethyl 5-[2-(4-chloro-phenyl)-1-cyano-2-oxo-ethylidene]-pyrrolidine-2-carboxylate] | 
146 | COC(=O)CSc1ccc(C(=O)/C(C#N)=C2/CCCCN2)cn1 [I-2-a-6] | 
222 to 224 | CCOC(=O)C1CC/C(=C(\C#N)C(=O)c2ccccc2Cl)N1 (stereo not drawn) [I-1-d-4] | 
155 | N#C/C(C(=O)c1ccc(SCC(=O)O)nc1)=C1\CCCCN1 [I-2-a-7] | 
137 | N#C/C(C(=S)c1ccc(Cl)cc1)=C1\CCCCN1 [I-1-a-151, 3-(4-chloro-phenyl)-3-thio-2-piperidin-2-ylidene-propionitrile] | 
197 | N#C/C(C(=O)c1ccc(NS(=O)(=O)C(F)(F)F)cc1)=C1\CCCCN1 [I-1-a-138, 3-[4-(trifluoromethanesulphonylamino)-phenyl]-3-oxo-2-piperidin-2-ylidene-propionitrile] | 
115 | CN1CCC/C1=C(\C#N)C(=O)c1ccc(Cl)cc1 [I-1-a-110, 3-(4-chloro-phenyl)-3-oxo-2-(1-methyl-pyrrolidin-2-ylidene)-propionitrile] | 
156 to 158 | N#C/C(C(=O)c1ccc(Cl)cc1)=C1\CCCN1 [Example 1, 3-(4-chlorophenyl)-3-oxo-2-pyrrolidin-2-ylidene-propionitrile] | 
134 | N#C/C(C(=O)c1ccc(-c2ccc(Cl)cc2)cc1)=C1\CCCCN1 [I-1-a-54, 3-(4′-chloro-biphenyl-4-yl)-3-oxo-2-piperidin-2-ylidene-propionitrile] | activity against weeds (% damage) (weeds [1]): strong activity; activity against weeds (% damage) (weeds [2]): strong activity
134 to 136 | N#C/C(C(=O)c1ccc(Cl)cc1)=C1\CCC(C(=O)O)N1 (centres unmarked) [Example 8, 5-[2-(4-chloro-phenyl)-1-cyano-2-oxo-ethylidene]-pyrrolidine-2-carboxylic acid] | 
218 | N#C/C(C(=O)c1ccc(Cl)cc1)=C1\CCCN1C(=O)c1ccc(Cl)cc1 [Example 5, 2-[1-(4-chlorobenzoyl)pyrrolidin-2-ylidene]-3-(4-chlorophenyl)-3-oxo-propionitrile] | 
 | N#CC(C(=O)c1ccc(Cl)cc1)=C1CCCN1Cc1ccc(Cl)nc1 [Preparation Example 3, 3-(4-chlorophenyl)-2-[1-(6-chloropyridin-3-yl-methyl)-pyrrolidin-2-yli-dene]-3-oxo-propionitrile] | activity (kill in %) against Spodoptera frugiperda caterpillars [3]: good activity
